Experimental data: patent US20100016402A1, “UNIT DOSE FORMULATIONS OF KETOROLAC FOR INTRANASAL ADMINISTRATION” (Roxro Pharma, Inc., priority 2008, published 2010)
Counter-ions that a name gives are not always drawn. Each block holds one molecule with its values, some of them ahead of it.

Assays:
[1] = solubility in water at different pH
[2] = solubility of local anesthetic in ketorolac solution; format: physicochemical; details: 15% ketorolac, not re-dispersed by heating or adjusting the pH
[3] = degradation of ketorolac in solution; format: physicochemical; details: 1-keto analog proportional to amount of ketorolac and available oxygen
Excerpt: The amount of 1-keto analog produced is generally proportional to the amount of ketorolac in solution and available oxygen (e.g., in the head space of the container, such as those described in U.S. patent application Ser. No. 12/404,250, filed on Mar. 13, 2009, entitled, “Device for Intranasal Administration,”).

pH of the solution in water [1]: about 1.5
solubility in water ([1]; water, pH not adjusted): soluble in water
Compound: CCOC(=O)c1ccc(N)cc1 [benzocaine hydrochloride]

precipitation in the presence of ketorolac ([2]; 6% benzocaine solution): precipitation was observed
precipitation in the presence of ketorolac ([2]; 10% benzocaine solution): precipitation was observed
solubility ([1]; low pH): soluble
solubility in water ([1]; physiological pH ranges of 4.5 to 7.2): low solubility
Compound: CCOC(=O)c1ccc(N)cc1 [benzocaine]

stability in solution (degradation products) [3]: produces several degradation products
Compound: O=C(c1ccccc1)c1ccc2n1CCC2C(=O)O (stereo not shown) [ketorolac, 5-benzoyl-2,3-dihydro-1H-pyrrolizine-1-carboxylic acid]
